Measurements: the supplement of paper PMC4977894
Counter-ions that a name gives are not always drawn. ± gives the standard deviation of the averaged measurements.

Experiments:
[1] = test system: Homo sapiens (human subject panel, olfactory perception); assay: perceived odor pleasantness rating (rating 0-100); higher = more pleasant
In short: (§1)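 Across ten visits of 100 stimuli, 55 healthy human subjects aged 18–50 sniffed 1 mL of each molecule in paraffin oil in randomized order, at both high and low concentrations. The six lowest performers were excluded. Whenever a subject reported smelling a stimulus, they rated it on a computerized slider that started at 50 and had to be moved, and positions were converted to a 0–100 scale. Each familiarity, intensity and pleasantness figure is a mean across subjects.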

[2] = test system: Homo sapiens (human subject panel, olfactory perception); assay: perceived odor intensity rating (rating 0-100); higher = stronger perceived smell
In short: as §1

[3] = test system: Homo sapiens (human subject panel, olfactory perception); assay: perceived odor familiarity rating (rating 0-100); higher = more familiar
In short: as §1

[4] = odor dilution in paraffin oil: 1/1,000
[5] = odor dilution in paraffin oil: 1/100,000
[6] = odor dilution in paraffin oil: 1/10
[7] = odor dilution in paraffin oil: 1/10,000,000

Compound	perceived odor pleasantness rating [1, 4]	perceived odor pleasantness rating [1, 5]	perceived odor intensity rating [2, 4]	perceived odor intensity rating [2, 5]	perceived odor familiarity rating [3, 4]	perceived odor familiarity rating [3, 5]	perceived odor pleasantness rating [1, 6]	perceived odor intensity rating [2, 6]	perceived odor familiarity rating [3, 6]	perceived odor pleasantness rating [1, 7]	perceived odor intensity rating [2, 7]	perceived odor familiarity rating [3, 7]
CCOC(=O)c1ccccc1 [Ethyl benzoate]	57.1 ± 25	58.6 ± 24	66.2 ± 24	38.4 ± 33	50.5 ± 32	43.1 ± 30						
CCCCCCCCCC(=O)OCC [Ethyl decanoate]	49.6 ± 24		21.2 ± 24		38.9 ± 27		58.2 ± 26	59.8 ± 30	50.9 ± 30			
CCOC=O [Ethyl formate]	48.2 ± 22		16.5 ± 26		24.9 ± 20		36 ± 26	51.6 ± 35	43.9 ± 32			
CCCCCCC(=O)OCC [Ethyl heptanoate]	62.6 ± 26	55.9 ± 25	69.1 ± 23	34.8 ± 28	59.4 ± 27	44.3 ± 29						
CCCCCCCCCCCCCC(=O)OCC [Ethyl myristate]	42.8 ± 25		20.7 ± 24		38.1 ± 33		50.6 ± 26	39.1 ± 28	40.5 ± 27			
CCCCCCCC(=O)OCC [Ethyl octanoate]	66.2 ± 22	61.9 ± 22	54.7 ± 29	46.7 ± 31	52.7 ± 33	52 ± 29						
C/C=C/C=C/C(=O)OCC [Ethyl sorbate]	35.3 ± 26	54.8 ± 20	75.4 ± 17	26.1 ± 27	53.1 ± 29	41.5 ± 30						
CCCCCCCCCCCCCCCCCC(=O)OCC [Ethyl stearate]	43.4 ± 15		17 ± 17		33.1 ± 24		45.7 ± 25	46.8 ± 33	38.3 ± 34			
CCCCCCCCCCC(=O)OCC [Ethyl undecanoate]	50.1 ± 28		38.8 ± 28		46.8 ± 28		52.8 ± 26	69.9 ± 21	49.9 ± 34			
C=CCc1ccc(OC(C)=O)c(OC)c1 [Eugenyl Acetate]	63.9 ± 23	58 ± 25	52.3 ± 30	21.1 ± 28	61.4 ± 28	37.7 ± 30						
O=C(O)/C=C/C(=O)O [Fumaric acid]	49.5 ± 25		17.1 ± 23		44 ± 31		36.9 ± 24	58.8 ± 26	51.9 ± 32			
OCc1ccco1 [Furfuryl alcohol]	39.6 ± 23	44.6 ± 24	56.7 ± 29	22.8 ± 22	50.3 ± 27	33.6 ± 28						
NCC(=O)O [Glycine]	53.3 ± 25		17.9 ± 23		40.8 ± 27		59.4 ± 23	50 ± 28	47.3 ± 28			
COc1ccccc1O [Guaiacol (replicate)]		37.6 ± 25		67.4 ± 29		47.2 ± 30				36.9 ± 19	54.8 ± 28	44 ± 30
COc1ccccc1O [Guaiacol]		41.6 ± 26		61.8 ± 28		47.3 ± 31				40.9 ± 25	48.6 ± 32	39.4 ± 28
COc1ccccc1OC(=O)Cc1ccccc1 [Guaiacyl phenylacetate]	37.2 ± 28		60.8 ± 28		45.1 ± 32		42.2 ± 29	71.5 ± 22	58.5 ± 28			
CCCCCCC(=O)O [Heptanoic Acid]	21.5 ± 20	30.4 ± 25	77.5 ± 23	49 ± 32	43.8 ± 31	36.5 ± 28						
CCCCCC=O [Hexanal]		20.4 ± 20		78.2 ± 21		41.5 ± 33				47.2 ± 18	15 ± 16	29 ± 26

Compound	perceived odor pleasantness rating [1, 4]	perceived odor pleasantness rating [1, 5]	perceived odor intensity rating [2, 4]	perceived odor intensity rating [2, 5]	perceived odor familiarity rating [3, 4]	perceived odor familiarity rating [3, 5]	perceived odor pleasantness rating [1, 6]	perceived odor intensity rating [2, 6]	perceived odor familiarity rating [3, 6]	perceived odor pleasantness rating [1, 7]	perceived odor intensity rating [2, 7]	perceived odor familiarity rating [3, 7]
CCCCCCOC=O [Hexyl Formate]	49 ± 28	42.2 ± 23	60.7 ± 29	33.9 ± 30	42.8 ± 32	35.5 ± 28						
CCCCCCOC(=O)c1ccccc1 [Hexyl benzoate (replicate)]	40.3 ± 23		35.9 ± 32		36.7 ± 29		31.9 ± 24	71.5 ± 26	38.4 ± 28			
CCCCCCOC(=O)c1ccccc1 [Hexyl benzoate]	37.4 ± 27		40.7 ± 33		37.8 ± 28		34.7 ± 25	69.5 ± 25	47.5 ± 28			
CCCCCCOC(=O)CCCCC [Hexyl hexanoate]	48.2 ± 23		34.4 ± 26		38 ± 29		43.8 ± 25	67.7 ± 26	39 ± 26			
CCCCCCCC(=O)OCCCCCC [Hexyl octanoate]	52.4 ± 18	46.4 ± 22	23 ± 19	16.5 ± 24	42.9 ± 32	28 ± 23						
CCCCCCOC(=O)CC [Hexyl propionate]	52.1 ± 24	38.5 ± 22	59 ± 32	27.6 ± 32	43.1 ± 28	40.8 ± 33						
II [Iodine]	51.6 ± 30		32.4 ± 30		41 ± 37		13.7 ± 22	77.7 ± 29	48.4 ± 33			
IC(I)I [Iodoform]	36.4 ± 22		68.4 ± 23		51.2 ± 29		30.7 ± 26	84.4 ± 16	52.6 ± 33			
CCCC(=O)OCCC(C)C [Isoamyl butyrate]	52.8 ± 28	45.5 ± 23	63.4 ± 26	20.4 ± 28	51.4 ± 31	36.4 ± 32						
CC(C)CCOC(=O)/C=C/c1ccccc1 [Isoamyl cinnamate]	38.8 ± 23	56.7 ± 24	18.9 ± 23	22.5 ± 26	25.2 ± 25	40.7 ± 32						
CCCCCCCCCCCC(=O)OCCC(C)C [Isoamyl laurate]	47.7 ± 22		20.3 ± 22		31.8 ± 22		33.7 ± 25	59.9 ± 29	41.5 ± 29			
CCCCCCCC(=O)OCCC(C)C [Isoamyl octanoate]	57.6 ± 22		24.3 ± 28		45.4 ± 32		50 ± 25	62.8 ± 29	45.2 ± 30			
CC(C)CCN [Isoamylamine]		40.2 ± 25		37.5 ± 30		37.5 ± 29				46.1 ± 22	15.1 ± 27	32.1 ± 27
CC(C)COC(=O)c1ccccc1 [Isobutyl benzoate]	49 ± 26		36.7 ± 31		41.1 ± 29		47.6 ± 29	78.7 ± 20	53.3 ± 30			
CC(C)COC(=O)/C=C/c1ccccc1 [Isobutyl cinnamate]	54 ± 27		49.3 ± 33		38.6 ± 30		41.3 ± 30	70.4 ± 24	45.6 ± 31			
CC(C)COC(=O)Cc1ccccc1 [Isobutyl phenylacetate]	45.5 ± 30	54.3 ± 24	52 ± 29	15.7 ± 21	49 ± 31	33.7 ± 29						
CCC(=O)OCC(C)C [Isobutyl propionate]	58.6 ± 23	47.8 ± 23	57.3 ± 30	31.5 ± 28	48 ± 27	41 ± 28						
